pEC50, pIC50: −log10 of the molar value. Like-named read-outs stand apart in the source and are kept apart here.
Columns and labels:
[1] = molecular target: EGFR Fab binding to the EGFR antigen; experiment: ELISA competitive inhibition of EGFR Fab binding to EGFR antigen; settings: for pIC50: read-out: IC50 for peptide inhibition of αEGFR Fab binding to EGFR antigen
[2] = molecular target: EGFR Fab; experiment: ELISA binding of peptides to EGFR Fab; settings: for pEC50: read-out: EC50 for peptide binding to αEGFR Fab
[3] = Table 27, peptide-8 optimization
[4] = Table 25, peptide-8 optimization

`CSCC[C@@H]1NC(=O)[C@H](C(C)C)NC(=O)[C@H]([C@@H](C)O)NC(=O)[C@@H](NC(=O)[C@H](C)N)CSSC[C@@H](C(=O)N[C@H](C(=O)O)C(C)C)NC(=O)[C@H](CCCNC(=N)N)NC(=O)[C@H](C(C)C)NC(=O)[C@H](CCC(=O)O)NC(=O)[C@H](CCC(N)=O)NC(=O)[C@H](CCCNC(=N)N)NC(=O)[C@H](C)NC(=O)CNC1=O` [Peptide-13] gave a pIC50 ([1]; Table 18) of under 6.52 and a pEC50 ([2]; Table 16) of under 6.00.
With `CC[C@H](C)[C@@H]1NC(=O)[C@H](CC(C)C)NC(=O)[C@H](C)NC(=O)[C@@H]2CCCN2C(=O)[C@@H](NC(=O)[C@@H]2CCCN2)CSSC[C@@H](C(=O)N[C@H](C(=O)O)C(C)C)NC(=O)[C@H]([C@@H](C)CC)NC(=O)[C@H](C(C)C)NC(=O)[C@H](CCC(=O)O)NC(=O)[C@H](C)NC(=O)[C@H](C(C)C)NC(=O)[C@H](CC(=O)O)NC1=O` [Peptide-14] the pIC50 ([1]; Table 18) was under 6.52 and the pEC50 ([2]; Table 16) was under 6.00.
In the case of `CSCC[C@@H]1NC(=O)[C@H](Cc2c[nH]c3ccccc23)NC(=O)[C@H](Cc2ccc(O)cc2)NC(=O)[C@H](Cc2c[nH]cn2)NC(=O)[C@H](C(C)C)NC(=O)[C@@H](NC(=O)[C@@H](NC(=O)[C@@H](N)CO)[C@@H](C)O)CSSC[C@@H](C(=O)N[C@H](C(=O)O)C(C)C)NC(=O)[C@H](CO)NC(=O)[C@H](CCCNC(=N)N)NC(=O)[C@H](CC(C)C)NC(=O)[C@H](CCC(N)=O)NC1=O` [Peptide-9], the pIC50 ([1]; Table 17) was under 6.52 and the pEC50 ([2]; Table 15) was under 6.00.
`CC[C@H](C)[C@@H]1NC(=O)[C@@H]2CCCN2C(=O)[C@H](CCCCN)NC(=O)[C@H](C)NC(=O)[C@H]([C@@H](C)O)NC(=O)[C@H](CC(=O)O)NC(=O)[C@H](Cc2ccccc2)NC(=O)[C@H](Cc2c[nH]cn2)NC(=O)[C@H](CO)NC(=O)[C@H]([C@@H](C)O)NC(=O)[C@@H](NC(=O)[C@@H]2CCCN2)CSSC[C@@H](C(=O)N[C@@H](C)C(=O)O)NC1=O` [Peptide-39] showed a pIC50 [1, 3] of 5.55 and a pEC50 [2, 4] of 6.69.
`CC(C)C[C@@H]1NC(=O)[C@H](CCC(N)=O)NC(=O)CNC(=O)[C@H](CCCNC(=N)N)NC(=O)[C@H](CCC(N)=O)NC(=O)[C@H](Cc2c[nH]c3ccccc23)NC(=O)[C@H](C(C)C)NC(=O)[C@H](CO)NC(=O)[C@H](CC(N)=O)NC(=O)[C@@H](NC(=O)[C@@H](N)Cc2ccc(O)cc2)CSSC[C@@H](C(=O)O)NC(=O)[C@H](Cc2c[nH]c3ccccc23)NC(=O)[C@H](Cc2ccc(O)cc2)NC1=O` [Peptide-15] was tested, and the pIC50 ([1]; Table 18) was under 6.52, the “binding affinity for EGFR Fab (in words)” value ([2]; among peptides of Table 14) was “strongest binding affinities (lowest EC50s)” and the pEC50 ([2]; Table 16) was 8.15.
Compound `CC[C@H](C)[C@@H]1NC(=O)[C@@H]2CCCN2C(=O)[C@H](CCCCN)NC(=O)[C@H](C)NC(=O)[C@H](CC(C)C)NC(=O)[C@H](CC(=O)O)NC(=O)[C@H](Cc2ccc(O)cc2)NC(=O)[C@H](Cc2c[nH]cn2)NC(=O)[C@H](CO)NC(=O)[C@H](CC(N)=O)NC(=O)[C@@H](NC(=O)[C@@H]2CCCN2)CSSC[C@@H](C(=O)N[C@H](C(=O)O)[C@@H](C)O)NC1=O` [Peptide-43] has a pIC50 [1, 3] of 5.37 and a pEC50 [2, 4] of 6.73.
With `CSCC[C@@H]1NC(=O)[C@H](CC(C)C)NC(=O)[C@H](Cc2ccccc2)NC(=O)[C@H](Cc2c[nH]cn2)NC(=O)[C@H](CCC(N)=O)NC(=O)[C@@H](NC(=O)CNC(=O)[C@@H](N)CC(C)C)CSSC[C@@H](C(=O)NCC(=O)O)NC(=O)[C@H]([C@@H](C)O)NC(=O)[C@H](C)NC(=O)[C@H](CC(C)C)NC(=O)[C@H](CCCCN)NC1=O` [Peptide-11] the pIC50 ([1]; Table 17) was under 6.52 and the pEC50 ([2]; Table 15) was 7.38.
With `CC[C@H](C)[C@@H]1NC(=O)[C@@H]2CCCN2C(=O)[C@H](CCCCN)NC(=O)[C@H](C)NC(=O)[C@@H]2CCCN2C(=O)[C@H](CC(=O)O)NC(=O)[C@H](Cc2ccccc2)NC(=O)[C@H](Cc2c[nH]cn2)NC(=O)[C@H](Cc2ccccc2)NC(=O)[C@H](CC(C)C)NC(=O)[C@@H](NC(=O)[C@@H]2CCCN2)CSSC[C@@H](C(=O)N[C@@H](CO)C(=O)O)NC1=O` [Peptide-46, PCLFHFDPAKPICS] the “potency as peptide mask (in words)” value ([1]; binding and inhibition data relative to peptide-8) was “more potent peptide masks”, the pIC50 [1, 3] was 6.52 and the pEC50 [2, 4] was 8.31.

Source: patent US12433953B2, “Compositions and methods related to tumor activated antibodies targeting EGFR and effector cell antigens” (Janux Therapeutics, Inc., priority 2021, dated 2025)
